The results in this text go back to paper PMC2504292 (Nucleic Acids Research, 2008).

For series [1], the target named is T1, PARN RRM (cap-binding domain of mouse PARN, residues 430-516) (Mus musculus, UniProt Q8VDG3).
T1 sequence (Q8VDG3 430-516): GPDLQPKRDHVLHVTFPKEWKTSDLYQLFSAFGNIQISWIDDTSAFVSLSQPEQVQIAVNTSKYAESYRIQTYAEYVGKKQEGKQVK
Nature of the series: isothermal titration calorimetry. For orientation: Isothermal titration calorimetry measures the heat released or taken up as one component is titrated into another.

In series [2] the target is T2, PARN RRM (cap-binding domain), NMR/ITC construct (mouse, UniProt Q8VDG3 430-516).
T2 sequence: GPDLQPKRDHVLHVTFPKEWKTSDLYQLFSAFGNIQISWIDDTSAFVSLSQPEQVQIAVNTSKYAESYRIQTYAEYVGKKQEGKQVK
Description: NMR HSQC titration.

As to `C[n+]1cn([C@@H]2O[C@H](COP(=O)(O)OP(=O)(O)OP(=O)(O)OC[C@H]3O[C@@H](n4cnc5c(=O)[nH]c(N)nc54)[C@H](O)[C@@H]3O)[C@@H](O)[C@H]2O)c2nc(N)[nH]c(=O)c21` [m7GpppG], the dissociation constant Kd in series [1] was ~45 µM.

For the molecule AAAAAAAAAA (ssRNA) [A10 10-mer poly(A)], the binding result in series [2] is listed as “no binding”.

For orientation: Kd means the concentration at which binding is half-saturated. Low readings indicate higher affinity, high ones lower affinity.
